We go through 3 molecules from patent US9271981B2, “Pyrrolo[2,3-D]pyrimidine compounds” (Zoetis Services LLC, priority 2008, dated 2016).

Assay [1] deals with T-cell proliferation in canine whole blood. The assay can be described thus: Canine in vitro T-cell Proliferation Assay. Type of assay: cell-based. To be noted: Canis lupus familiaris, ConA + canine IL-2, tritiated thymidine. The method, then:
Methods: Canine whole blood was collected in sodium heparin tubes from 29 beagle dogs and 23 mixed breed dogs. Whole blood (20 μL) was plated in 96-well plates (Costar 3598) with 180 μL of medium (RPMI 1640, Gibco #21870-076, with 1% heat inactivated fetal bovine serum, Gibco #10082-39, 292 μg/ml L-glutamine, Gibco #250030-081, 100 u/ml penicillin and 100 μg streptomycin per ml, Gibco #15140-122) containing vehicle control or test compound (0.001 to 10 μM), concanavalin A (ConA; 1 μg/ml, Sigma C5275), and canine interleukin-2 (IL-2; 50 ng/ml, R&D Systems 1815-CL/CF). Wells containing whole blood, medium with vehicle control and no ConA or IL-2 were used as background controls. Plates were incubated at 37° C. for 48 hours. Tritiated thymidine, 0.4 μCi/well (Perkin Elmer, Net027A-005MC), was added for 20 additional hours. Plates were frozen and then thawed, washed and filtered using a Brandel MLR-96 cell harvester and prewet filter mats (Wallac 1205-401, Perkin Elmer). Filters were dried at 60° C. for one hour (Precision 16EG convection oven) and placed into filter sample bags (Wallac 1205-411, Perkin Elmer) with 10 mL of scintillant (Wallac 1205-440, Perkin Elmer). Sealed filters were counted on a LKB Wallac 1205 Betaplate liquid scintillation counter. Data were collected via Gterm Betaplate program v1.1 (Wallac copyright 1989-1990) and transformed into percent inhibition, calculated using the following formula: […]

A further assay concerns flea allergic dogs. The assay can be described thus: Reducing Flea-associated Pruritus and Dermatitis Assay. The following applies: for pruritus as compared to placebo (seconds of pruritus per 4 hour recording): 10% level of significance. Type of assay: in vivo. The method, then:
Twenty eight male and female dogs of mixed breeds ranging in weight from 5-35 kg and greater than one year of age were infested with approximately 100 unfed adult cat fleas (Ctenocephalides felis) 14 days prior to the start of dosing and reinfested with 30 fleas per dog every 4 days throughout the study. Seven days before dosing, twenty four dogs were randomized into three different treatment groups, placebo, 0.5 mg/kg or 0.25 mg/kg of the compound of Example 1b, based on visual analog scale (VAS) scores for skin lesions. Treatments were given orally twice a day for 28 days, and pruritic behavior as well as erythema and skin lesions were was assessed during the study. Pruritic behavior was recorded by placing dogs into pens with video recording capability, and recording their activity over 4 hours. Pruritic activity was quantitated by determining how many seconds the dogs spent scratching. Skin lesions were recorded by image capture of abdominal, inguinal region and the severity ranked according to a visual analog scale (VAS).
Video captured elapsed time of pruritic behavior was analyzed using a mixed linear model for repeated measures. The model included fixed effects of treatment and day of study and the interaction of treatment and day of study. Random effects included block, the interaction of block and treatment and error. Baseline data for pruritic behavior (day-1) were used as covariate in the analysis of pruritic behavior. Least squares means were used as estimates of treatment means. Standard errors of least squares means were estimated and 90% confidence intervals were constructed. Geometric means were computed from the least squares means for log-transformed data. A priori contrasts were used to assess treatment. Treatment differences were assessed at the 10% level of significance (P≦0.10).

SMILES strings stand for the structures.

As usually defined, the IC50 is the point on the concentration scale where inhibition reaches its midpoint. As for `CNS(=O)(=O)C[C@H]1CC[C@H](N(C)c2ncnc3[nH]ccc23)CC1` [Example 1a, N-methyl-1-{trans-4-[methyl(7H-pyrrolo[2,3-d]pyrimidin-4-yl)amino]cyclohexyl}methanesulfonamide], the values for the IC50 in assay [1] (whole blood from beagles) and in assay [1] (whole blood from mixed breed dogs) were 66.3 nM and 138 nM, respectively.

Regarding `CNS(=O)(=O)C[C@H]1CC[C@H](N(C)c2ncnc3[nH]ccc23)CC1.O=C(O)/C=C\C(=O)O` [Example 1b, N-methyl-1-{trans-4-[methyl(7H-pyrrolo[2,3-d]pyrimidin-4-yl)amino]cyclohexyl}methanesulfonamide maleic acid salt], the “pruritus as compared to placebo (seconds of pruritus per 4 hour recording)” value in the assay on flea allergic dogs (0.25 mg/kg orally twice a day, days 1, 4 and 12) is “Significant reductions”; in the assay on flea allergic dogs (0.5 mg/kg orally twice a day, days 1 and 20), “Significant reductions”. Also, the “Lesions and erythema (VAS)” value in the assay on flea allergic dogs (0.5 mg/kg orally twice a day for 28 days, flea allergic dogs) is listed as “significantly reduced”.

For `CN(c1ncnc2[nH]ccc12)[C@H]1CC[C@H](CS(=O)(=O)NC2CCC2)CC1` [Example 2, N-cyclobutyl-1-{trans-4-[methyl(7H-pyrrolo[2,3-d]pyrimidin-4-yl)amino]cyclohexyl}methanesulfonamide], in assay [1] (whole blood from beagles), the concentration for half-maximal inhibition (IC50) was 410 nM.
